# Literature values in patent US20220257802A1, “COMPRESSED SOLID COMPOSITION FOR MRI” (Ascelia Pharma AB, priority 2019, published 2022).
# Settings: after oral intake
compound,measurement,value
[Mn+2] [manganese],first-pass effect in the liver,up to 98%
